From patent US20240100193A1, “Self-complementary AAV vectors carrying dominant negative RhoA and methods of use to treat ocular diseases” (iView Therapeutics, Inc., priority 2022, published 2024)

System: ROCK
Experiment: ROCK Activity Assay Kit on HTM cell lysates treated with ROCK activator or inhibitor
Format: biochemical, human
Conditions: for relative ROCK activity normalized to the no drug treated cell lysate: HTM cell lysate
Description: The ROCK Activity Assay Kit is an enzyme immunoassay developed for detection of the specific phosphorylation of MYPT1 at Thr696 by ROCK. A strip-well microtiter plate is precoated with a recombinant MYPT1. After incubating the substrate wells with ROCK samples, the phosphorylated MYPT1 is detected by an anti-phospho-MYPT1 (Thr696) antibody.
Human trabecular meshwork cells were seeded into 12-well plates at the density of 500,000 cells per well. 48 hours after seeding, cells were harvested with cell lysis buffer. Cell lysates were treated with ROCK activator or ROCK inhibitor before incubating with precoated strip-wells. The ROCK activity was then measured with the protocol of the kit. Three chemicals were used to activate ROCK: S1P (Sphingosine-1 phosphate at 1 μM), LPA (Oleoyl L-lysophosphatidic acid at 10 μM) and DMOG (Dimethyloxalylglycine at 0.5 mM). […] Data was presented as relative ROCK activity normalized to the no drug treated cell lysate.

Molecule: COC(=O)CNC(=O)C(=O)OC [DMOG, Dimethyloxalylglycine]
- relative ROCK activity normalized to the no drug treated cell lysate (DMOG at 0.5 mM): increased

Molecule: CCCCCCCCCCCCC/C=C/[C@@H](O)[C@@H](N)COP(=O)(O)O [S1P, Sphingosine-1 phosphate]
- relative ROCK activity normalized to the no drug treated cell lysate (S1P at 1 μM): increased

Molecule: C[C@@H](N)[C@H]1CC[C@H](C(=O)Nc2ccncc2)CC1 [Y-27632]
- relative ROCK activity normalized to the no drug treated cell lysate (Y-27632 at 50 μM): decreased

Molecule: Oleoyl L-lysophosphatidic acid [LPA]
- rank among the chemical ROCK activators (LPA 10 μM compared with S1P 1 μM and DMOG 0.5 mM): most potent activator
- relative ROCK activity normalized to the no drug treated cell lysate (LPA at 10 μM): increased
